For orientation: DC50 means the concentration at which degradation of the target reaches its halfway point. A high value points to degradation only at high concentration. What is called IC50 is the concentration that inhibits the measured activity by half.

For one assay, the target named is T1, IRAK4 (Homo sapiens, UniProt Q9NWZ3).
T1 construct: endogenous in cells; host or cells: OCI-Ly10
T1 sequence (Q9NWZ3 1-460): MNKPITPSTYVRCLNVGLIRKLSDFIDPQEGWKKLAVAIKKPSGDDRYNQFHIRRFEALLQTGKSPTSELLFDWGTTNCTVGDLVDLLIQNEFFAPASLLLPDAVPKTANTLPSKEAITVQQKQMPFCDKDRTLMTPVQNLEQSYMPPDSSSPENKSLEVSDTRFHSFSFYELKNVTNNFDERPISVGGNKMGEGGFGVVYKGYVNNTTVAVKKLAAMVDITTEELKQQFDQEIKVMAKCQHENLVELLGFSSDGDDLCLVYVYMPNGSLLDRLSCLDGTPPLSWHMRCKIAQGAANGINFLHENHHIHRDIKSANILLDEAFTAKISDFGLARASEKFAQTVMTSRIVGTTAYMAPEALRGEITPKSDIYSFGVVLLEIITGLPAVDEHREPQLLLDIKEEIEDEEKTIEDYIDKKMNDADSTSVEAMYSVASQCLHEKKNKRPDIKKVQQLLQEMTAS
Briefly: OCI-LY10 IRAK MSD assay DC50 (IRAK4 degradation). It is filed as cell-based. To be noted: OCI-Ly10 cells, incubated for 4 hr, concentration of compound required to degrade 50% of protein. The method, then:
A MSD assay is run to determine the concentration of compound required to degrade 50% of protein (DC50).
• Compounds were reconstituted to 10 mM in stock solutions. The stock solutions were diluted to 5 mM and 45 μL of each dilution was transferred to a 384 pp-plate. A 3 fold, 8-point serial dilution was performed by transferring 15 μL of compound into 30 μL DMSO using Janus. • 20 nL of each compound were added into each well of a 96-well plate (Corning3799). • OCI-Ly10 cells were seeded into the 96-well plate at 3.0*10e^5 cells/100 μL/well. • The cell plate was shaken at 720 rpm for 5 min and incubated for 4 hr. • 100 μL of cells were transferred into the 96-PCR plate and spun down at high speed for 5 mins. • The supernatant was discarded and 100 μL of RIPA lysis buffer with proteinase inhibitors was added per well. The plate was then sealed and shaken at 600 rpm and 4° C. for about 20 min. • The plate was then spun down at high speed (about 3200 g) for 30 min and then frozen in a −80° C. fridge. • A bare MSD plate (L15XA-3) was coated with 2 μg/mL of capture antibody (mouse Anti-IRAK4 antibody [2H9], ab119942) in PBS to 40 μL/well and incubated overnight at 4° C.
• The MSD coated plate was washed 3× (150 μL/well) with 1×TBST (CST #9997S). • The MSD plate was then blocked with 150 μL of blocking buffer [3% Blocker A (MSD, R93BA-4) in TBST]/well and shaken for 1 hr at RT and 600 rpm. • The MSD plate was washed 3× (150 μL/well) with 1×TBST. The sample RIPA lysates were then added to the MSD plate (50 μL/well) and shaken for 1 hr at RT and 600 rpm. • The MSD plate was washed 3× (150 μL/well) with 1×TBST and the primary detection antibody (Rabbit Anti-IRAK4 antibody [Y279], ab32511) was added to a final concentration of 1 μg/ml with 25 μL/well. The plate was then shaken for 1 hr at RT and 600 rpm. • The MSD plate was washed 3× (150 μL/well) with 1×TBST and the secondary detection antibody, SULFO-TAG anti-species antibody (Anti Rabbit Antibody (R32AB-5) MSD, R32AB-1) was added to a volume of 25 μL/well at a final concentration of 1 μg/ml. The plate was then shaken for 1 hr at RT and 600 rpm. • The MSD plate was then washed 3× (150 μL/well) with 1×TBST. • 1×MSD reading buffer was then added (150 μL/well) and the plate […].
(MSD, R92TC-2) • The MSD instrument was then read.
The remaining activity was calculated following the formula below:
• The DC50 was calculated by fitting the Curve using Xlfit (v5.3.1.3), equation 201: […]
The letter codes for IRAK4 DC50 indicate the concentration of compound required to degrade 50% of protein: A (<0.01 μM), B (0.01-0.1 μM), C (>0.1-0.2 μM), D (>0.2 μM).
In the case of `O=C1CCN(c2cnc3cc(C#CCO[C@@H]4CCN(C[C@H]5CC[C@H](n6cc(NC(=O)c7cnn8ccc(N9C[C@H]%10C[C@@H]9CO%10)nc78)c(C(F)F)n6)CC5)C[C@@H]4F)ccn23)C(=O)N1` [I-70], the DC50 was less than 10 nM. Still for that read-out and setting: the same measure for `COc1cc2nc([C@H]3CC[C@H](CN4CCC(c5cc(OC)c6ncc(N7CCC(=O)NC7=O)n6c5)CC4)CC3)sc2cc1NC(=O)c1cccc(C(F)(F)F)n1` [I-58]: more than 200 nM; for `O=C1CCN(c2cncc3cc(C4CCN(C[C@H]5CC[C@H](n6cc7cc(NC(=O)c8cccc(C(F)(F)F)n8)ncc7n6)CC5)CC4)ccc23)C(=O)N1` [I-18]: less than 10 nM. On the same count and under the same terms, the same measure for `C[C@H]1CN(C[C@H]2CC[C@H](n3cc(NC(=O)c4cnn5ccc(N6C[C@H]7C[C@@H]6CO7)nc45)c(C(F)F)n3)CC2)CC[C@@H]1OCC#Cc1ccn2c(N3CCC(=O)NC3=O)cnc2c1` [I-63]: less than 10 nM; for `CC(C)Nc1cc(-c2ccc3cc(C#N)cnn23)ncc1C(=O)N[C@H]1CC[C@H](CN2CCC(c3ccn4c(N5CCC(=O)NC5=O)cnc4c3)CC2)CC1` [I-74]: 10 to 100 nM; for `O=C1CCN(c2cnc3c(C#CCN4CCN(C[C@H]5CC[C@H](n6cc(NC(=O)c7cnn8ccc(N9C[C@H]%10C[C@@H]9CO%10)nc78)c(C(F)F)n6)CC5)CC4)cccn23)C(=O)N1` [I-60]: less than 10 nM. The same measure, in the same setting: the same measure for `O=C1CCN(c2cnc3cc(C#CCO[C@H]4CCN(C[C@H]5CC[C@H](n6cc(NC(=O)c7cnn8ccc(N9C[C@H]%10C[C@@H]9CO%10)nc78)c(C(F)F)n6)CC5)C[C@H]4F)ccn23)C(=O)N1` [I-71]: less than 10 nM. On to `COc1cc2nc([C@H]3CC[C@H](CN(C)C4CCN(c5cccn6c(N7CCC(=O)NC7=O)cnc56)CC4)CC3)sc2cc1NC(=O)c1cccc(C(F)(F)F)n1` [I-44], for which the DC50 was 10 to 100 nM. Still for that read-out and setting: the same measure for `N#Cc1cnc2c(C(=O)Nc3ccc4nn([C@H]5CC[C@H](CN6CCC(c7ccn8c(N9CCC(=O)NC9=O)cnc8c7)CC6)CC5)cc4c3)cnn2c1` [I-72]: more than 200 nM. On the same count and under the same terms, in the case of `CC(C)Nc1cc(-n2ccc3cc(C#N)cnc32)ncc1C(=O)N[C@H]1CC[C@H](CN2CCC(c3cccn4c(N5CCC(=O)NC5=O)cnc34)CC2)CC1` [I-76] it was 10 to 100 nM; in that of `COc1cc2nc([C@H]3CC[C@H](CN(C)C4CCN(c5ccn6c(N7CCC(=O)NC7=O)cnc6c5)CC4)CC3)sc2cc1NC(=O)c1cccc(C(F)(F)F)n1` [I-80], 10 to 100 nM; in that of `COc1cc2nn([C@H]3CC[C@H](CN4C[C@H]5C[C@@H]4CN5c4cccn5c(N6CCC(=O)NC6=O)cnc45)CC3)cc2cc1NC(=O)c1cccc(C(F)(F)F)n1` [I-55], 10 to 100 nM. Consider `COc1cc2nn([C@H]3CC[C@H](CN(C)C4CCN(c5cccn6c(N7CCC(=O)NC7=O)cnc56)CC4)CC3)cc2cc1NC(=O)c1cc(F)cc(C(F)(F)F)c1` [I-43], for which the DC50 lay in the range of 10 to 100 nM. For `COc1cc2nn([C@H]3CC[C@H](CN4CCN(c5cccn6c(N7CCC(=O)NC7=O)cnc56)CC4)CC3)cc2cc1NC(=O)c1cccc(C(F)(F)F)n1` [I-69], the DC50 is less than 10 nM. Still for that read-out and setting: in the case of `COc1cc2nc([C@H]3CC[C@H](CN4CCC(c5ccn6c(N7CCC(=O)NC7=O)cnc6c5)CC4)CC3)sc2cc1NC(=O)c1cccc(C(F)(F)F)n1` [I-78] it was 10 to 100 nM; in that of `COc1cc2nn([C@H]3CC[C@H](CN4CCC(c5ccn6c(N7CCC(=O)NC7=O)cnc6c5)CC4)CC3)cc2cc1NC(=O)c1cccc(C(F)(F)F)n1` [I-36, N-[2-[4-[[4-[3-(2,4-dioxohexahydropyrimidin-1-yl)imidazo[1,2-a]pyridin-7-yl]-1-piperidyl]methyl]cyclohexyl]-6-methoxy-indazol-5-yl]-6-(trifluoromethyl)pyridine-2-carboxamide], less than 10 nM; in that of `CC(C)Nc1cc(-n2ccc3cc(C#N)cnc32)ncc1C(=O)N[C@H]1CC[C@H](CN2CCC(c3ccn4c(N5CCC(=O)NC5=O)cnc4c3)CC2)CC1` [I-77], 10 to 100 nM. Still for that read-out and setting: the same measure for `O=C1CCN(c2cnc3cc(C#CCO[C@@H]4CCN(C[C@H]5C[C@H](n6cc(NC(=O)c7cnn8ccc(N9C[C@H]%10C[C@@H]9CO%10)nc78)c(C(F)F)n6)C5)C[C@@H]4F)ccn23)C(=O)N1` [I-42]: less than 10 nM; for `COc1cc2nn([C@H]3CC[C@H](CN(C)C4CCN(c5ccn6c(N7CCC(=O)NC7=O)cnc6c5)CC4)CC3)cc2cc1NC(=O)c1cc(F)cc(C(F)(F)F)c1` [I-86]: 10 to 100 nM. The same measure, in the same setting: the same measure for `O=C1CCN(c2cnc3c(C4CCN(C[C@H]5C[C@H](n6cc7cc(NC(=O)c8cccc(C(F)(F)F)n8)ccc7n6)C5)CC4)cccn23)C(=O)N1` [I-39, N-[2-[3-[[4-[3-(2,4-dioxohexahydropyrimidin-1-yl)imidazo[1,2-a]pyridin-8-yl]-1-piperidyl]methyl]cyclobutyl]indazol-5-yl]-6-(trifluoromethyl)pyridine-2-carboxamide]: more than 200 nM.

Turning to `COc1cc2nn([C@H]3CC[C@H](CN4CCC(c5ccn6c(N7CCC(=O)NC7=O)cnc6c5)CC4)CC3)cc2cc1NC(=O)c1cncc(C#N)c1` [I-84], the DC50 was more than 200 nM. The same measure, in the same setting: the same measure for `COc1cc2nn([C@H]3CC[C@H](CN4C5CCC4CN(c4ccn6c(N7CCC(=O)NC7=O)cnc6c4)C5)CC3)cc2cc1NC(=O)c1cccc(C(F)(F)F)n1` [I-45]: 10 to 100 nM; for `COc1cc2nn([C@H]3CC[C@H](CN4C[C@@H]5C[C@H]4CN5c4ccn5c(N6CCC(=O)NC6=O)cnc5c4)CC3)cc2cc1NC(=O)c1cccc(C(F)(F)F)n1` [I-52]: 10 to 100 nM. The same measure, in the same setting: the same measure for `Cc1cc2nn([C@H]3CC[C@H](CN4CCN(c5cccn6c(N7CCC(=O)NC7=O)cnc56)CC4)CC3)cc2cc1NC(=O)c1cccc(C(F)(F)F)n1` [I-49]: 10 to 100 nM. Same read-out and setting: in the case of `O=C1CCN(c2cnc3c(C4CCN(C[C@H]5CC[C@H](n6cc7cc(NC(=O)c8cccc(C(F)(F)F)n8)ncc7n6)CC5)CC4)cccn23)C(=O)N1` [I-29] it was 10 to 100 nM.

A further assay has as its system OCI-LY10 cells. Briefly: CellTiter-Glo Luminescent Cell Viability Assay. The format is cell-based. To be noted: Homo sapiens, 96 h, incubated 4 days, read-out: OCI-LY10 CTG IC50. The method, then: Compound-mediated viability effect on OCI-LY10 was quantitatively determined using the CellTiter-Glo® Luminescent Cell Viability Assay kit from Promega (Catalog number G7570) following manufacturer's recommended procedures. Briefly, OCI-LY10 cells were seeded into 384 well plates (Grenier Bio-One, Catalog number 781080) with a density of 10,000 cells per well. Compounds were then added to the assay plate with final top concentration of 10 μM and 1:3 dilution series with total of 9 doses. The final DMSO concentration was normalized to 0.2%. The assay plates were incubated at 37° C. for 4 days under 5% CO2. Then the assay plate was equilibrated at room temperature for 10 minutes. To determine cell viability, 30 μL CellTiter Glo reagent was added to each well and the assay plate was centrifuged at 1000 rpm for 30 second, incubated at room temperature for 10 min, and analyzed by detecting the luminescence using a multimode plate reader (EnVision 2105, PerkinElmer). The data was then analyzed by software Prism 7.0 from GraphPad and the dose response curves were fit using a three-parameter logistic equation to calculate IC50.
The letter codes for OCI-LY10 CTG IC50 include: A (<1 μM), B (1-10 μM), C (>10 μM).
With `CN(C[C@H]1CC[C@H](n2cc3cc(NC(=O)c4cccc(C(F)(F)F)n4)c(C(C)(C)O)cc3n2)CC1)C1CCN(c2cccc3c(N4CCC(=O)NC4=O)cncc23)CC1` [I-7], the IC50 is more than 10000 nM.

As for `CC(C)(O)c1cc2nn([C@H]3CC[C@H](CN4CCC(c5ccc6c(N7CCC(=O)NC7=O)cncc6c5)CC4)CC3)cc2cc1NC(=O)c1cccc(C(F)(F)F)n1` [I-6], the IC50 lay within 1000 to 10000 nM. The same measure, in the same setting: in the case of `CN(C[C@H]1CC[C@H](n2cc3cc(NC(=O)c4cccc(C(F)(F)F)n4)c(C(C)(C)O)cc3n2)CC1)C1CCN(c2ccc3c(N4CCC(=O)NC4=O)cncc3c2)CC1` [I-5] it was 1000 to 10000 nM.

The values above are taken from patent publication US20250375526A1, “IRAK DEGRADERS AND USES THEREOF” (Kymera Therapeutics, Inc., priority 2020, published 2025).
